Measurements reported in paper PMC3324652 (2012).

Target: cannabinoid receptor type 2 (CB2) (Homo sapiens, UniProt P34972)
Experiment: radioligand saturation binding

Chain of cannabinoid receptor type 2 (CB2) (P34972 whole entry): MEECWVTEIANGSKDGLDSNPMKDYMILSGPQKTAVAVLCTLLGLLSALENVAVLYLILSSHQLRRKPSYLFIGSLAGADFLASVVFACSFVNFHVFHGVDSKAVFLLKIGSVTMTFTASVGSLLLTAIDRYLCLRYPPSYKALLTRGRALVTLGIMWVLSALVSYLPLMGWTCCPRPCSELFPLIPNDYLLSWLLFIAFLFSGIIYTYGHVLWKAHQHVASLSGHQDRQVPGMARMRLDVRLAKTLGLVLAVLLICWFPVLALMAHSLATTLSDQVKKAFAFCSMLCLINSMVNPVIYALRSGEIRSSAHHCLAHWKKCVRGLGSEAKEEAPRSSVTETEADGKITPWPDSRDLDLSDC

Compound `CCCCOc1c(OC)ccc2cc(C(=O)NCc3ccc(F)cc3)c(=O)[nH]c12` [[18F]-14, 7-methoxy-8-butoxy-2-oxo-1,2-dihydroquinoline-3-carboxylic acid-(4-fluorobenzyl)amide] has a Kd of 3.4 nM.
